Assay results published in patent EP1333824B1, “TREATMENT OF SEXUAL DYSFUNCTION WITH BOMBESIN RECEPTOR ANTAGONISTS” (Warner-Lambert Company LLC, priority 2000, dated 2002).

What was measured:
Format in all cases: in vivo
[1] = test system: Ovariectomised adult female Sprague Dawley rats; assay: Female rat sexual proceptivity test (time investigating male vs female stimulus); details: Example 1; i.p., 3 and 10mg/kg in 50% 2-hydroxypropyl-β-cyclodextrin, 1h before tests
conscious male rat = assay: Penile intracavernosal pressure in the conscious male rat (telemetry)
Method: In addition to treating women with FSD, bombesin antagonists will be useful in treating male erectile dysfunction (MED. Both the non-selective BB1/2 antagonists (Compound 1; 10mg/kg sc) and the selective BB1 receptor antagonist (Compound 3; 15mg/kg sc) is pro-erectile in a conscious rat model of penile erection (Figures 24 and 25). Erectile responses were recorded by measuring intracavernosal pressure using surgically implanted telemetric device. The specific details the surgical procedures, data acquisition and analysis can be found in detail in Bemabe 1999.
Compound 1 and compound 3 were dissolved in 50% β-cyclodextrin in saline. They were administered at a dose of 15mg/kg subcutaneously (sc). […] These increases equate to penile erection. Both Compounds 1 and 3 induced a number of erections in a similar manner to those observed with apomorphine or melanotan-II - both of which are clinically proven agents that are effective in the treatment of MED. Moreover the amplitude of the increases observed were similar to those observed with apomorphine or melanotan-II. The mechanism of action is thought to be similar to the effects on female genital flow ie CNS potentiation of the descending neuronal pathways that control penile erection.

[2] = test system: Female New Zealand rabbits; assay: Pelvic nerve-stimulated female genital blood flow, anaesthetised rabbit model of sexual arousal
Method: Female New Zealand rabbits (~2.5kg) were pre-medicated with a combination of Medetomidine (Domitor®) 0.5ml/kg i.m., and Ketamine (Vetalar®) 0.25ml/kg i.m. whilst maintaining oxygen intake via a face mask. The rabbits were tracheotomised using a Portex™ uncuffed endotracheal tube 3 ID., connected to ventilator and maintained at a ventilation rate of 30-40 breaths per minute, with an approximate tidal volume of 18-20 ml, and a maximum airway pressure of 10 cm H2O. Anaesthesia was then switched to Isoflurane and ventilation continued with O2 at 21/min. The right marginal ear vein was cannulated using a 23G or 24G catheter, and Lactated Ringer solution perfused at 0.5ml/min. The rabbit was maintained at 3% Isoflurane during invasive surgery, dropping to 2% for maintenance anaesthesia.
The left groin area of the rabbit was shaved and a vertical incision was made approximately 5cm in length along the thigh. The femoral vein and artery were exposed, isolated and then cannulated with a PVC catheter (17G) for the infusion of drugs and compounds. Cannulation was repeated for the femoral artery, inserting the catheter to a depth of 10cm to ensure that the catheter reached the abdominal aorta. This arterial catheter was linked to a Gould system to record blood pressure. Samples for blood gas analysis were also taken via the arterial catheter. Systolic and diastolic pressures were measured, and the mean arterial pressure calculated using the formula (diastolic x2 + systolic) ö3. Heart rate was measured via the pulse oxymeter and Po-ne-mah data acquisition software system (Ponemah Physiology Platform, Gould Instrument Systems Inc). A ventral midline incision was made into the abdominal cavity. The incision was about 5cm in length just above the pubis. The fat and muscle was bluntly dissected away to reveal the hypogastric nerve which runs down the body cavity. It was essential to keep close to the side curve of the pubis wall in order to avoid damaging the femoral vein and artery which lie above the pubis. The sciatic and pelvic nerves lie deeper and were located after further dissection on the dorsal side of the rabbit. Once the sciatic nerve is identified, the pelvic nerve was easily located. The term pelvic nerve is loosely applied; anatomy books on the subject fail to identify the nerves in sufficient detail. However, stimulation of the nerve causes an increase in vaginal and clitoral blood flow, and innervation of the pelvic region. The pelvic nerve was freed away from surrounding tissue and a Harvard bipolar stimulating electrode was placed around the nerve. […] A frequency response curve was determined at the start of each experiment in order to determine the optimum frequency to use as a sub-maximal response, normally 4Hz. […]

[3] = test system: Ovariectomised adult female Sprague Dawley rats; assay: Female rat sexual receptivity test (lordosis quotient, LQ); details: Example 2; after vs before administration (paired t test); Compound (1) 10mg/kg i.p. 1h; quinelorane 6.25µg/kg s.c. 90min
Method: Ovariectomised adult female Sprague Dawley rats (180-200g, from Charles River) were housed in groups of 6 in a reversed lighting system of 12h light:dark (lights off 7.00-19.00h). Two weeks after ovariectomy they were used for sexual activity tests. The experiments started at least 5h into the dark period.
It was administered intraperitoneally (i.p.) at a dose of 10mg/kg, in a dosing volume of 1ml/kg. […] Forty eight hours before testing, ovariectomised female rats (as described above), were primed with 5µg oestradiol benzoate dissolved in corn oil and injected subcutaneously. […] The females were placed with a series of vigorous male rats and subjected to 10 mounts.
The lordotic response of the animal was recorded and expressed as a percentage of the mounts (i.e. lordosis quotient, LQ), as previously described. Animals showing LQ<20 were considered non-receptive and were included in the study. Each rat was tested prior to administration of the compound and then tested similarly post-injection.
The above compound was dissolved in PEG200 vehicle and administered orally. […] Both compounds were administered in a 1ml/kg volume.
Forty eight hours before tests, the animals were primed with 5µg oestradiol benzoate (Sigma Chemical. Co. Ltd., UK) dissolved in corn oil and injected subcutaneously. The females were placed with a series of vigorous male rats and subjected to 10 mounts. The lordotic response of the animal was recorded and expressed as a percentage of the mounts (i.e. lordosis quotient, LQ). […] Animals showing higher LQ were not included in the study. Each rat was tested prior to administration of the compound and then tested similarly at 1h and 90min post-injection of the above compound or quinelorane respectively.

## COc1ccc(C2(CNC(=O)[C@](C)(Cc3c[nH]c4ccccc34)NC(=O)Nc3ccc([N+](=O)[O-])cc3)CCCCC2)nc1 [Compound (1), (S) 3-(1H-Indol-3-yl)-N-[1-(5-methoxy-pyridin-2-yl)-cyclohexyl-methyl]-2-methyl-2-[3-(4-nitro-phenyl)-ureido]-propionamide]
[1]
  MED (increase in percentage of time spent investigating the male stimulus): 10 mg/kg
Conscious male rat; Compound 1 10mg/kg sc, Compound 3 15mg/kg sc
  erectile response (penile erection): pro-erectile
Conscious male rat; one hour after 10mg/kg sc Compound 1, 45 minutes after 15mg/kg sc compound 3
  intracavernosal pressure: significant increases in intracavernosal pressure
[2]; 15mg/kg sc
  basal genital blood flow in the absence of PNS: no effect
[2]; 15mg/kg sc in 50% β-cyclodextrin in saline
  pelvic-nerve stimulated (PNS) increases in genital (vaginal and clitoral) blood flow: potent enhancer
[3]
  lordosis quotient (LQ): significant (P<0.05) stimulatory effect on the LQ
